According to ChEMBL document CHEMBL1151757, “Synthesis, radiosynthesis, and biological evaluation of fluorine-18-labeled 2beta-carbo(fluoroalkoxy)-3beta-(3'-((Z)-2-haloethenyl)phenyl)nortropanes: candidate radioligands for in vivo imaging of the serotonin transporter with positron emission tomography” (J Med Chem, 2008):

Experiments:
[1] = Drug uptake in anesthetized cynomolgus monkey brain frontal lobe after 187.5 mins postinjection; format: ADME, organism-based, Macaca fascicularis; conditions: in vivo, 3.125 h
[2] = Drug uptake in anesthetized cynomolgus monkey brain cerebellum after 182.5 mins postinjection; format: ADME, organism-based, Macaca fascicularis; conditions: in vivo
Caudate [3] = test: Drug uptake in anesthetized cynomolgus monkey brain caudate after 197.5 mins postinjection; format: ADME, organism-based, Macaca fascicularis, Caudate nucleus; conditions: in vivo
[4] = Drug uptake in anesthetized cynomolgus monkey brain frontal lobe after 197.5 mins postinjection; format: ADME, organism-based, Macaca fascicularis; conditions: in vivo
Caudate [5] = test: Drug uptake in anesthetized cynomolgus monkey brain caudate after 182.5 mins postinjection; format: ADME, organism-based, Macaca fascicularis, Caudate nucleus; conditions: in vivo
Caudate [6] = test: Drug uptake in anesthetized cynomolgus monkey brain caudate after 192.5 mins postinjection; format: ADME, organism-based, Macaca fascicularis, Caudate nucleus; conditions: in vivo
Caudate [7] = test: Drug uptake in anesthetized cynomolgus monkey brain caudate after 202.5 mins postinjection; format: ADME, organism-based, Macaca fascicularis, Caudate nucleus; conditions: in vivo, 3.375 h
[8] = Drug uptake in anesthetized cynomolgus monkey brain cerebellum after 207.5 mins postinjection; format: ADME, organism-based, Macaca fascicularis; conditions: in vivo
[9] = Drug uptake in anesthetized cynomolgus monkey brain cerebellum after 192.5 mins postinjection; format: ADME, organism-based, Macaca fascicularis; conditions: in vivo
Thalamus [10] = test: Drug uptake in anesthetized cynomolgus monkey brain thalamus after 202.5 mins postinjection; format: ADME, organism-based, Macaca fascicularis; conditions: in vivo, 3.375 h
Midbrain [11] = test: Drug uptake in anesthetized cynomolgus monkey brain midbrain after 197.5 mins postinjection; format: ADME, organism-based, Macaca fascicularis; conditions: in vivo
Caudate [12] = test: Drug uptake in anesthetized cynomolgus monkey brain caudate after 207.5 mins postinjection; format: ADME, organism-based, Macaca fascicularis, Caudate nucleus; conditions: in vivo
Midbrain [13] = test: Drug uptake in anesthetized cynomolgus monkey brain midbrain after 202.5 mins postinjection; format: ADME, organism-based, Macaca fascicularis; conditions: in vivo, 3.375 h
Pons [14] = test: Drug uptake in anesthetized cynomolgus monkey brain pons after 192.5 mins postinjection; format: ADME, organism-based, Macaca fascicularis; conditions: in vivo
Pons [15] = test: Drug uptake in anesthetized cynomolgus monkey brain pons after 182.5 mins postinjection; format: ADME, organism-based, Macaca fascicularis; conditions: in vivo
Putamen [16] = test: Drug uptake in anesthetized cynomolgus monkey brain putamen after 197.5 mins postinjection; format: ADME, organism-based, Macaca fascicularis; conditions: in vivo
Putamen [17] = test: Drug uptake in anesthetized cynomolgus monkey brain putamen after 207.5 mins postinjection; format: ADME, organism-based, Macaca fascicularis; conditions: in vivo
Pons [18] = test: Drug uptake in anesthetized cynomolgus monkey brain pons after 187.5 mins postinjection; format: ADME, organism-based, Macaca fascicularis; conditions: in vivo, 3.125 h
[19] = Drug uptake in anesthetized cynomolgus monkey brain occipital lobe after 197.5 mins postinjection; format: ADME, organism-based, Macaca fascicularis; conditions: in vivo
Medulla [20] = test: Drug uptake in anesthetized cynomolgus monkey brain medulla after 192.5 mins postinjection; format: ADME, organism-based, Macaca fascicularis; conditions: in vivo
Thalamus [21] = test: Drug uptake in anesthetized cynomolgus monkey brain thalamus after 207.5 mins postinjection; format: ADME, organism-based, Macaca fascicularis; conditions: in vivo
Pons [22] = test: Drug uptake in anesthetized cynomolgus monkey brain pons after 202.5 mins postinjection; format: ADME, organism-based, Macaca fascicularis; conditions: in vivo, 3.375 h
[23] = Drug uptake in anesthetized cynomolgus monkey brain cerebellum after 202.5 mins postinjection; format: ADME, organism-based, Macaca fascicularis; conditions: in vivo, 3.375 h
Medulla [24] = test: Drug uptake in anesthetized cynomolgus monkey brain medulla after 197.5 mins postinjection; format: ADME, organism-based, Macaca fascicularis; conditions: in vivo
Thalamus [25] = test: Drug uptake in anesthetized cynomolgus monkey brain thalamus after 192.5 mins postinjection; format: ADME, organism-based, Macaca fascicularis; conditions: in vivo
Putamen [26] = test: Drug uptake in anesthetized cynomolgus monkey brain putamen after 187.5 mins postinjection; format: ADME, organism-based, Macaca fascicularis; conditions: in vivo, 3.125 h
Midbrain [27] = test: Drug uptake in anesthetized cynomolgus monkey brain midbrain after 187.5 mins postinjection; format: ADME, organism-based, Macaca fascicularis; conditions: in vivo, 3.125 h
Thalamus [28] = test: Drug uptake in anesthetized cynomolgus monkey brain thalamus after 182.5 mins postinjection; format: ADME, organism-based, Macaca fascicularis; conditions: in vivo

SMILES: O=C(OCCC[18F])C1C2CCC(CC1c1cccc(/C=C\Br)c1)N2 (stereo not drawn)
- Drug uptake [1]: 2.39
- Drug uptake [2]: 2.27
- Drug uptake (Caudate [3]): 3.62
- Drug uptake [4]: 2.23
- Drug uptake (Caudate [5]): 3.95
- Drug uptake (Caudate [6]): 3.75
- Drug uptake (Caudate [7]): 3.64
- Drug uptake [8]: 1.86
- Drug uptake [9]: 2.38
- Drug uptake (Thalamus [10]): 3.84
- Drug uptake (Midbrain [11]): 4.54
- Drug uptake (Caudate [12]): 3.41
- Drug uptake (Midbrain [13]): 4.46
- Drug uptake (Pons [14]): 3.48
- Drug uptake (Pons [15]): 3.71
- Drug uptake (Putamen [16]): 3.78
- Drug uptake (Putamen [17]): 3.65
- Drug uptake (Pons [18]): 3.85
- Drug uptake [19]: 2.91
- Drug uptake (Medulla [20]): 3.98
- Drug uptake (Thalamus [21]): 3.35
- Drug uptake (Pons [22]): 3.68
- Drug uptake [23]: 2.13
- Drug uptake (Medulla [24]): 3.73
- Drug uptake (Thalamus [25]): 3.83
- Drug uptake (Putamen [26]): 3.87
- Drug uptake (Midbrain [27]): 4.65
- Drug uptake (Thalamus [28]): 3.94
